Data set [1] has as its system DS-Nh mice. Briefly: DS-Nh mouse model, topical dosing (scratching behavior, skin histology). Format: in vivo. From the text:
DS-Nh mice raised under conventional conditions spontaneously develop dermatitis and skin abnormalities characterized by hyperkeratosis, reduced basal keratinocytes proliferation, defective differentiation, and keratinization of skin appendages.
At the end of the study, the mice were sacrificed, and skin biopsies were paraffin-embedded, stained with hematoxylin and eosin (H&E) and assessed microscopically (FIG. 7).

Data set [2] concerns male C57BL/6J mice. Briefly: Acetone-ether-water (AEW)-induced pruritus model, oral dosing. Format: in vivo, mouse. On the procedure: (§1) The efficacy of KM-001 was assessed in an acetone-ether-water (AEW)-induced pruritus model in male C57BL/6J mice, a model induced by daily treatment of an acetone/ether (1:1) mixture and water applied to the animal's cheek. KM-001 (10 mg/kg, 1 mg/kg, 0.1 mg/kg and 0.01 mg/kg) was administered orally to 20 mice. The amount of time spent scratching and the number of bouts during the 20 minutes were recorded by an observer. Blood and skin samples were collected at 0, 0.5 hr, 1 hr and 1.5 hr post dosing.

Data set [3] is described as follows: Plasma concentration in AEW pruritus study, oral dosing. Format: in vivo, mouse. The conditions noted are these: mice, oral 0.1 mg/kg. On the procedure:
as §1

Data set [4] in a line: Blood concentrations in minipig dermal toxicity study (13 weeks). The note with it: for AUC0-tlast / Cmax: MiniPig, 6 g/day. Format: in vivo. How it is done:
(§2) I: Blood concentrations of KM-001 were evaluated using a validated analytical method as part of the toxicity studies in minipigs and rats.

Data set [5] in a line: 28-day oral repeat dose toxicity study, systemic exposure. Format: in vivo, rat. The note with it: for AUC0-tlast / Cmax: Rat, oral. How it is done: as §2
A short description of data set [6]: Estimated human systemic exposure and safety margins (dose-linear extrapolation from minipig PK). How it is done: as §2
A short description of data set [7]: Saturated solubility, shake flask method, UPLC-UV. Format: physicochemical. The conditions noted are these: for Saturated Solubility API: RT, 24 hours. On the procedure:
Saturated solubility was determined using the shake flask method with excess API at room temperature (RT). It was assumed that equilibrium was attained after 24 hours, and excess solid was separated by ultrafiltration prior to dilution and quantification. Quantification of KM-001 for saturated solubility studies was performed using a qualified UPLC-UV analytical method.

The subject of data set [8] is keratinocytes. The note with it: found in US 2002/0332697 A1, cited from earlier work.
For data set [9], the target named is TRPV3 (Homo sapiens, UniProt Q8NET8). The conditions noted are these: read-out: IC50 (inhibit TRPV3); found in US 2002/0332697 A1; cited from earlier work.
Sequence of TRPV3 (Q8NET8 whole entry, species assumed): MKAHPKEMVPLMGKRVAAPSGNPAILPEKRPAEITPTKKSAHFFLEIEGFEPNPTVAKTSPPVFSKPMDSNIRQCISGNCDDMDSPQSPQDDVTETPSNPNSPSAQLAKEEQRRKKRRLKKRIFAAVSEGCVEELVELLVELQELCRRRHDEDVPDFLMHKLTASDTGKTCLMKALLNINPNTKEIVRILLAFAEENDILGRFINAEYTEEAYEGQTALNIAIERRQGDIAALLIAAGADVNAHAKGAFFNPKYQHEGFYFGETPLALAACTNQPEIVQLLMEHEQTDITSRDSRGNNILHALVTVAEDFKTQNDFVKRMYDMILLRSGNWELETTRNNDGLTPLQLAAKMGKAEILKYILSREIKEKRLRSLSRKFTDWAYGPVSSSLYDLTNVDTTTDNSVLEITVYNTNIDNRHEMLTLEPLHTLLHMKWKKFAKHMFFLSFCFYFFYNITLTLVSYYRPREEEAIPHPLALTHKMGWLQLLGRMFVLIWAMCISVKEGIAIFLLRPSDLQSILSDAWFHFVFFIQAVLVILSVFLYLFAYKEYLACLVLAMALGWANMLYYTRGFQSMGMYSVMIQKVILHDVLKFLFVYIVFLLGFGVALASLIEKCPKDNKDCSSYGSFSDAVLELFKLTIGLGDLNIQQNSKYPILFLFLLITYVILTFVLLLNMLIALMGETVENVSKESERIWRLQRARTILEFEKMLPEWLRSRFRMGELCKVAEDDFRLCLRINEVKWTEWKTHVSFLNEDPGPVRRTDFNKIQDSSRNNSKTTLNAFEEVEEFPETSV
The mark [10] stands for this setting: 0.5% formulation, 2.25 mg/kg*day, Week 13.
Setting [11] is: 1.0% formulation, 4.5 mg/kg*day, Week 13.

As for `C=CC[C@@H]1/C=C(\C)C[C@H](C)C[C@H](OC)[C@H]2O[C@@](O)(C(=O)C(=O)N3CCCC[C@H]3C(=O)O[C@H](/C(C)=C/[C@@H]3CC[C@@H](O)[C@H](OC)C3)[C@H](C)[C@@H](O)CC1=O)[C@H](C)C[C@@H]2OC` [tacrolimus 0.1%, tacrolimus], the reduction in scratch in [1] (day 14, twice daily topical treatment) is on record as 20%. The “mice exhibiting normalization of skin pathology” value in data set [1] (two weeks of treatment, H&E histology, partial normalization for tacrolimus) is listed as 40 % of mice.
For the molecule “(S)-2-(1,3-dimethyl-2-6-dioxo-2,3-1h-purin-7(6H)-N-(4-(3-Fluoro-4-2methylpyrrolidin-1-yl)phenyl)thiazol-2-yl)acetamide [KM-001]”, the scratching bouts result is reported as “trended to decrease” in data set [2] (oral 0.01 mg/kg) and “significantly decreased” in data set [2] (oral 0.1 mg/kg, p<0.01). For the same molecule, the scratching time result in data set [2] (oral 0.01 mg/kg) is on record as “trended to decrease”; in [2] (oral 0.1 mg/kg, p<0.001), “significantly decreased”. Also, the “maximum plasma concentration (Cmax)” value in data set [3] is on record as 1.34 ng/mL. The AUC0-tlast in data set [4] (0.1% formulation, 0.45 mg/kg*day, Week 13) was found to be 16.6 ng·h/mL; in [4] (setting [10]) it was 73.7 ng·h/mL; in data set [4] (setting [11]) it was 159 ng·h/mL; in data set [5] (1 mg/kg*day, Day 28), 479 ng·h/mL; in data set [5] (5 mg/kg*day, Day 28) it was 4570 ng·h/mL; in data set [5] (10 mg/kg*day, Day 28), 8360 ng·h/mL. The highest concentration (Cmax) (in general, the maximum level reached in the sampled fluid or tissue) in [4] (0.1% formulation, 0.45 mg/kg*day, Week 13, mean male and female) is given as 2.3 ng/mL; in [4] (setting [10]), 5.3 ng/mL; in data set [4] (setting [11]) it was 10.8 ng/mL; in data set [5] (1 mg/kg*day, Day 28, mean male and female) it was 97 ng/mL; in data set [5] (5 mg/kg*day, Day 28), 525 ng/mL; in data set [5] (10 mg/kg*day (NOAEL), Day 28), 968 ng/mL. For the same molecule, the exposure (AUC) – broadly, the area under the concentration-time curve, a measure of exposure – in data set [4] (minipigs, 4.5 mg KM-001/kg/day) was 159.1 ng·h/mL; in data set [5] (rat, 28-day oral repeat dose, at NOAEL of 10 mg/kg/day), 8357 ng·h/mL. Further, the no observed adverse effect level (NOAEL) (as a rule, the highest tested level that showed no adverse finding) in data set [5] (28-day oral repeat dose toxicity study in the rat) came to 10 mg/kg/day. Besides, the “safety margin for AUC, rat vs estimated human exposure” value was 836 fold in [6] (0.3%) and 261 fold in data set [6] (1%). For the same molecule, the “AUC, estimated human systemic exposure” value in data set [6] (0.3% cream) is “approx. 10 ng/mL*h”; in data set [6] (1% cream), ~32 ng·h/mL. Besides, the “safety margin for Cmax, rat vs estimated human exposure” value in data set [6] (1% cream-gel) is “approx. 242 fold”. The “Dose MiniPig API (safety factor)” value was 34 in [6] (Human dermal 0.3% formulation vs minipig dose) and 11 in data set [6] (Human dermal 1.0% formulation vs minipig dose). Besides, the “solubility in triglycerides and fatty alcohols” value in [7] was “relatively soluble”. Besides, the “Saturated Solubility API” value is reported as 13.1 % w/w in data set [7] (M1: Miglyol 812 N 33.3%, Arlamol E 62.5%, Phenoxy-2-ethanol 4.2%); 0.7 % w/w in data set [7] (M2: Miglyol 812 N 8%, Arlamol E 15%, Macrol-82 77%); 1.5 % w/w in data set [7] (M3: Miglyol 812 N 10%, Kollicream OD 10%, Macrol-82 75%, Kollicream OA 5%); 4.0 % w/w in [7] (M6: Miglyol 812 N 20%, Arlamol E 16%, Kollicream OA 10%, Macrol-82 54%); 1.6 % w/w in data set [7] (M10: Miglyol 812 N 20%, Crodamol IPM 21.85%, Kollicream OA 5%, Light Mineral Oil 53.15%); 13.0 % w/w in data set [7] (M13: Miglyol 812 N 47.83%, Kollicream OD 52.17%). The “Saturated Solubility API” value in data set [7] (M14: Miglyol 812 N 45.83%, Kollicream OD 50%, Phenoxy-2-ethanol 4.17%) stood at 14.0 % w/w. Further, the “Ca^+2 flux in keratinocytes” value in data set [8] is reported as “significantly reduced”. Moreover, in data set [8] (keratinocytes), the differentiation markers result is “normalized”. The IC50 (usually the concentration that gives 50% inhibition) in data set [9] was ~3 nM.

The values are drawn from patent publication US20250302743A1, “METHODS OF TREATING DERMATOLOGICAL CONDITIONS AND SYMPTOMS THEREOF” (KAMARI PHARMA LTD., priority 2022, published 2025).
